According to US7728039B2, “Biphenyl and Naphthyl-Phenyl Hydroxamic Acid Derivatives” (Sigma-Tau Industrie Farmaceutiche Riunite S.p.A., priority 2005, dated 2010):
Where two headings read alike, the source gives them in different places.

Columns and labels:
[1] = system: NB4 human promyelocytic leukaemia; test: Sulphorodamine B cytotoxicity test on NB4 cells; type: cell-based
Description: (§1) The cytotoxic effect of some biphenyl and phenylnaphthyl compounds bearing a hydroxamic acid group is reported herein. […] The chemical structures of the tested compounds of the invention and of the corresponding compounds bearing a carboxylic acid group are reported in FIG. 1. To test the effects of the compounds on cell growth, NB4 human promyelocytic leukaemia, NCI-H460 non-small cell carcinoma cells, H460/(R9A) (resistant to carboxylic acid-bearing compounds: ST1898, ST1926, ST1964), HCT-116 human colon carcinoma cells, IGROV-1 and IGROV-1/Pt (sensitive ovarian carcinoma and platinum-resistant ovarian carcinoma cells, respectively) were used. NB4 and NCI-H460 tumour cells were grown in RPMI 1640 containing 10% foetal bovine serum (GIBCO), HCT-116 tumour cells were grown in McCoy's 5A containing 10% foetal bovine serum (GIBCO), IGROV-1 and IGROV-1/Pt were grown in DMEM containing 10% foetal bovine serum (GIBCO),
(§2) Tumour cells were seeded in 96-well tissue culture plates at approximately 10% confluence and were allowed to attach and recover for at least 24 h. Varying concentrations of the drugs were then added to each well to calculate their IC50 value (the concentration which inhibits the 50% of cell survival). The plates were incubated for 24 h at 37° C. At the end of the treatment, for NB4 tumour cells in suspension, the procedure was performed as follows: medium culture was removed by centrifugation of the plates at 1600×g for 10 min and the surnatant was removed. 250 μl PBS were added, then the plates were centrifuged at 1600×g for 10 min, the surnatant was removed. 200 μl/well of medium culture RPMI 1640 containing 10% FCS were added and the plates were incubated at 37° C. for other 48 h. The plates were centrifuged again at 1600×g for 10 min, the medium culture was removed and 200 μl PBS and 50 μl of cold 80% TCA were added. The plates were incubated on ice for at least 1 h. TCA was removed, the plates were washed 3 times for immersion in distilled-water and dried on paper and at 40° C. for 5 min. Then 200 μl of 0.4% sulphorodamine B in 1% acetic acid were added. The plates were incubated at room temperature for other 30 min. Sulphorodamine B was removed, the plates were washed for immersion in 1% acetic acid for 3 times, then they were dried on paper and at 40° C. for 5 min. Then 200 μl Tris 10 mM were added, the plates were kept under stirring for 20 min. The survival cell was determined as optical density by a Multiskan spectrofluorimeter at 540 nm. For the tumour cells in adhesion (NCI-H460 and HCT-116), the procedure was as above mentioned, except that at the end of the treatment, the plates were washed by remotion of the surnatant and addition of PBS 3 times without centrifugation. Also the last day of the assay, the surnatant was removed without centrifugation.
(§3) The amount of cells killed was calculated as the percentage decrease in sulphorodamine B binding compared with control cultures. The IC50 values (the concentration which inhibits the 50% of cell survival) were calculated with the “ALLFIT” program.

[2] = system: IGROV-1 (sensitive ovarian carcinoma cells); test: Sulphorodamine B cytotoxicity test on IGROV-1 cells; type: cell-based; details: read-out: IC50 ± SD, IGROV-1
Description: as §1, §2, §3

[3] = system: IGROV-1/Pt (platinum-resistant ovarian carcinoma cells); test: Sulphorodamine B cytotoxicity test on IGROV-1/Pt cells; type: cell-based; details: read-out: IC50 ± SD, IGROV-1/Pt
Description: as §1, §2, §3

[4] = system: NCI-H460 non-small cell carcinoma cells; test: Sulphorodamine B cytotoxicity test on NCI-H460 cells; type: cell-based; details: SRB, read-out: IC50 ± SD, NCI-H460
Procedure: The chemical structures of the tested compounds of the invention and of the corresponding compounds bearing a carboxylic acid group are reported in FIG. 1. […] NB4 and NCI-H460 tumour cells were grown in RPMI 1640 containing 10% foetal bovine serum (GIBCO), HCT-116 tumour cells were grown in McCoy's 5A containing 10% foetal bovine serum (GIBCO), IGROV-1 and IGROV-1/Pt were grown in DMEM containing 10% foetal bovine serum (GIBCO),
as §2, §3

[5] = system: NCI-H460 R9A tumour cells (H460/(R9A), resistant to carboxylic acid-bearing compounds); test: Sulphorodamine B cytotoxicity test on ST1926-resistant NCI-H460 R9A cells; type: cell-based; details: for RI (resistance index): IC50 on resistant tumour cell line/IC50 on sensitive tumour cell line (NCI-H460 R9A / NCI-H460); for IC50: Table 3, resistant NCI-H460 R9A, SRB, read-out: IC50 ± SD, NCI-H460 R9A; for overcoming of resistance on H460/R9A: H460/R9A versus sensitive NCI-H460, result in words
Description: as §1, §2, §3
The resistant tumour cell line NCI H460 R9A was a clone selected for the resistance to ST1926 (Table 3). To obtain the resistant tumour cell line, the sensitive NCI-H460 tumour cells were treated with 2 μM ST1926 for 24 hours and maintained in drug-free medium for a recovering time of 7 days. Then, survived cells were cultured applying a continuous selective pressure of 2 μM (10×IC50) ST1926. Resistant NCI-H460 cells were subculture for 3-4 times before increasing ST1926 concentration to 4 μM (20×IC50). Survived cells were seeded in 96-well plates to isolate resistant cells clones and maintained in complete medium with 4 μM of ST1926. The tumour cell line was maintained at least for one week, before seeding for SRB cytotoxicity assay, in drug-free medium.
To evaluate the effect of the compound on survival cells, the sulphorodamine B test was used. […]

[6] = system: NB4 promyelocytic leukaemia cells; test: Differentiation of NB4 tumour cells by nitroblue tetrazolium (NBT) reduction, with or without ATRA; type: cell-based, human; details: 3 days, NBT-reducing activity; for Differentiation AC50: compound alone (without ATRA)
Description: Relevant aspects of the differentiation program set in motion by ATRA in APL cells can be reproduced in primary cultures of leukemic blasts and in the derived NB4 cell line, which is a unique model for the study of the pharmacologic activity of ATRA and derivatives. Pharmacological concentrations of ATRA arrest the growth of NB4 blasts and differentiate them into cells that resemble mature neutrophils. This is followed by a slow process of apoptosis. […] In particular, the differentiation of NB4 tumour cells induced by the compounds was determined by nitroblue tetrazolium (NBT) reduction. NB4 promyelocytic leukaemia cells were seeded at a density of 150000 cells/ml in RPMI 1640 medium containing 10% FCS. To measure the cytodifferentiating effect of the molecules, tumour cells were treated with the compounds at different concentrations starting from at least 0.4 μM to 0.01 μM, whereas to measure the enhancing action of the molecules of ATRA activity, NB4 cells were treated with increasing concentrations of the molecules in the presence or absence of ATRA at a suboptimal concentration (5 nM).
Tumour cells were incubated for 3 days at 37° C. without replacing the medium culture. To measure the prodifferentiative effect, 500,000 cells were collected, centrifuged and resuspended in 1 ml of RPMI 1640 medium containing 10% FCS, 1 mg/ml of nitroblue tetrazolium (NBT) and 100 ng of PMA (4-phorbol-12-myristate-13-acetate). The tumour cells resuspended were incubated at 37° C. for 60 min. At the end of the incubation, tumour cells were centrifuged and the pellet was resuspended in 1 ml of PBS containing Triton ×100 at 10%. The samples were sonicated and the absorbance was determined at 540 nm with a spectrophotometer. Differentiation of tumor cells as AC50 (activating concentration) was evaluated as the concentration of the compound giving 50% of the maximal induction of NBT-reducing activity with or without ATRA.

[7] = system: HCT-116 human colon carcinoma cells; test: Sulphorodamine B cytotoxicity test on HCT-116 cells; type: cell-based; details: Table 2, SRB, read-out: IC50 ± SD, HCT-116
Description: as §1, §2, §3

[8] = Table 4, NB4 tumour cells, compound alone, read-out: IC50 (μM ± SD)
[9] = Homo sapiens, NB-4, Table 4, NB4 tumour cells, compound alone, read-out: IC50 (μM ± SD)
[10] = Homo sapiens, NCI-H460, Table 3, sensitive NCI-H460
[11] = Homo sapiens, NB-4, Table 1, NB4, 24 h treatment, 48 h recovery, SRB, read-out: IC50 ± SD, NB4
[12] = Homo sapiens, NCI-H460, Table 2, NCI-H460

COc1ccc(-c2ccc(/C=C/C(=O)O)cc2)cc1C12CC3CC(CC(C3)C1)C2 [ST1898, reference compound]
IC50 ([1]; Table 1, NB4, 24 h treatment, 48 h recovery, SRB, read-out: IC50 ± SD, NB4): 1.1 ± 0.07 µM | IC50 ([2]; Table 1, SRB): 1190 ± 50 nM | IC50 ([3]; Table 1, SRB): 1430 ± 50 nM | IC50 ([4]; Table 3, sensitive NCI-H460): 1200 ± 20 nM | RI (resistance index) [5]: 53.6 | IC50 [5]: 64400 ± 5000 nM

O=C(O)/C=C/c1ccc(-c2ccc(O)c(C34CC5CC(CC(C5)C3)C4)c2)cc1 [ST1926, E-3-(4′-hydroxy-3′-adamantylbiphenyl-4-yl)acrylic acid, reference compound]
IC50 [1, 8]: 0.082 ± 0.005 µM | IC50 ([4]; Table 3, sensitive NCI-H460): 130 ± 10 nM | RI (resistance index) [5]: 77.7 | IC50 [5]: 10100 ± 700 nM | Differentiation AC50 [6]: no differentiation

O=C(O)c1ccc2cc(-c3ccc(O)c(C45CC6CC(CC(C6)C4)C5)c3)ccc2c1 [ST1964, 6-[3′-(1-adamantyl)-4′-hydroxyphenyl]-2-naphthalenecarboxylic acid, reference compound]
IC50 [1, 9]: 0.4 ± 0.05 µM | IC50 [4, 10]: 370 ± 20 nM | IC50 ([5]; Homo sapiens): 12700 ± 700 nM | RI (resistance index) [5]: 34 | Differentiation AC50 [6]: no differentiation

O=C(NO)c1ccc2cc(-c3ccc(O)c(C45CC6CC(CC(C6)C4)C5)c3)ccc2c1 [ST2142, 6-[3-1-(adamantyl)-4-hydroxyphenyl]-naphthalene-2-carboxylic acid N-hydroxyamide]
IC50 [1, 8]: 2.4 ± 0.08 µM | IC50 ([2]; Table 2, SRB): 650 ± 100 nM | IC50 ([3]; Table 2, SRB): 1100 ± 30 nM | IC50 ([4]; Table 2, NCI-H460): 1000 ± 60 nM | IC50 ([4]; Table 3, sensitive NCI-H460): 1000 ± 60 nM | IC50 [7]: 2900 ± 200 nM | overcoming of resistance on H460/R9A [5]: completely overcame the resistance | RI (resistance index) [5]: 2.2 | IC50 [5]: 2200 ± 100 nM | AC50 ([6]; combined with suboptimal ATRA (5 nM)): 310 nM | Differentiation AC50 [6]: no differentiation

O=C(O)/C=C/c1ccc(-c2ccc(O)cc2)cc1 [ST2188, E-4-(4-hydroxyphenyl)cinnamic acid, reference compound]
IC50 [1, 11]: 78.7 ± 7.4 µM | IC50 ([2]; Homo sapiens, Table 1, SRB): 89000 ± 11000 nM | IC50 ([3]; Homo sapiens, Table 1, SRB): 156000 ± 2000 nM

COc1ccc(-c2ccc(/C=C/C(=O)NO)cc2)cc1C12CC3CC(CC(C3)C1)C2 [ST3056, E-3-(3′-Adamantan-1-yl-4′-methoxy-biphenyl-4-yl)-N-hydroxy-acrylamide]
IC50 [1, 11]: 0.6 ± 0.05 µM | IC50 ([2]; Homo sapiens, Table 1, SRB): 960 ± 30 nM | IC50 ([3]; Homo sapiens, Table 1, SRB): 1790 ± 70 nM | IC50 [4, 12]: 620 ± 40 nM | IC50 [4, 10]: 620 ± 40 nM | IC50 ([7]; Homo sapiens): 1300 ± 100 nM | overcoming of resistance on H460/R9A [5]: completely overcame the resistance | IC50 ([5]; Homo sapiens): 1200 ± 40 nM | RI (resistance index) [5]: 1.9

O=C(C=Cc1ccc(-c2cc3c(c(C45CC6CC(CC(C6)C4)C5)c2)OCCO3)cc1)NO [ST3081, 3-[4-(8-Adamantan-1-yl-2,3-dihydro-benzo[1,4]dioxin-6-yl)-phenyl]-N-hydroxy-acrylamide]
IC50 ([2]; Homo sapiens, Table 2, SRB): 1220 ± 40 nM | IC50 ([3]; Homo sapiens, Table 2, SRB): 840 ± 20 nM | IC50 [4, 12]: 1000 ± 40 nM | IC50 [4, 10]: 1480 ± 190 nM | IC50 ([7]; Homo sapiens): 2550 ± 30 nM | overcoming of resistance on H460/R9A [5]: the same characteristic are retained | IC50 ([5]; Homo sapiens): 1390 ± 140 nM | RI (resistance index) [5]: 0.94

O=C(/C=C/c1ccc(-c2ccc(O)c(C34CC5CC(CC(C5)C3)C4)c2)c(Cl)c1)NO [ST3088, E-3-(3′-Adamantan-1-yl-2-chloro-4′-hydroxy-biphenyl-4-yl)-N-hydroxy-acrylamide]
IC50 ([2]; Homo sapiens, Table 2, SRB): 1340 ± 40 nM | IC50 ([3]; Homo sapiens, Table 2, SRB): 1610 ± 100 nM | IC50 [4, 12]: 5400 ± 300 nM | IC50 [4, 10]: 5400 ± 300 nM | IC50 ([7]; Homo sapiens): 5400 ± 900 nM | overcoming of resistance on H460/R9A [5]: the same characteristic are retained | IC50 ([5]; Homo sapiens): 7500 ± 100 nM | RI (resistance index) [5]: 1.4

O=C(/C=C/c1ccc(-c2ccccc2)cc1)NO [ST3256, E-3-(biphenyl-4-yl)-N-hydroxy-acrylamide, reference compound]
IC50 [1, 9]: 0.9 ± 0.1 µM | Differentiation AC50 [6]: no differentiation

CN(C)c1ccc(-c2ccc(/C=C/C(=O)NO)cc2)cc1 [ST3444, E-3-[4′-dimethylaminobiphenyl-4-yl]-N-hydroxy-acrylamide, reference compound]
IC50 [1, 9]: 0.86 ± 0.05 µM | Differentiation AC50 [6]: no differentiation

E,E-5-biphenylyl-pentadienoic acid N-hydroxyamide [ST3400, reference compound]
IC50 [1, 8]: 0.66 ± 0.003 µM | Differentiation AC50 [6]: no differentiation
